Laboratory results reported in patent US20230141783A1, “DIFFERENT FORMS OF 6-CHLORO-2-ETHYL-N-(4-(4-(4-(TRIFLUOROMETHOXY)PHENYL)PIPERIDINE-1-YL)BENZYL)IMIDAZO[1,2-A]PYRIDINE-3-CARBOXAMIDE” (priority 2019, published 2023).
Values joined by “and” are separate entries in the source; they are usually repeats but may differ in a detail not shown here. Equal entries are not always repeated. “Also recorded” adds a separate entry of the source. Where two headings read alike, the source gives them in different places.

How the values were obtained:
[1] = Long-term stability at 25° C./60% RH (HPLC); format: physicochemical; conditions: 25° C. and 60% RH for up to 60 months; ditosylate
[2] = Stability under accelerated conditions 40° C./75% RH (HPLC); format: physicochemical; conditions: 40° C. and 75% RH up to 6 months
DVS water absorption = format: physicochemical; conditions: 90% RH at RT
From the text: (FIGS. 4-5). It is the predominant form obtained in slurry experiments. Conversion from Form A to other XRPD patterns was mainly obtained from methanol (to Form C) or water (to pattern B) in the slurry medium. However, as it will be shown in further sections, Form C is converted to Form A upon re-slurry in the majority of other solvents (than methanol).
FIGS. 9 to 11 show XRPD, DSC, and TGA of a solid with Form C. […] The XRPD peaks of pattern C are sharper than those of Form A. Form C is the predominant form when methanol is used as the slurry medium. However, Form “C” is not a methanol solvate form of the di-tosylate salt. Many reactive crystallization experiments using different solvents generated Form C immediately after salt formation.

[3] = Exposing Forms A and C in 100% RH at RT (XRPD/DSC); format: physicochemical; conditions: 100% RH at RT for 6 days
From the text: Forms A and C were exposed in 100% RH environment at RT for 6 days; the solids were subsequently analyzed using DSC and XRPD.
In FIGS. 1 and 17, the XRPD of sample of Form A (previous obtained form EA and IPA/MEK) before and after 6 days exposure to 100% RH are sketched. FIGS. 19 and 20 show the DSC scan of the same samples after exposure. […] FIGS. 18 and 21 show the result of the same treatment for Form C.

[4] = Solubility estimation by aliquot addition and Clarity temperature cycling
[5] = Humidity stress of generated salts (75% relative humidity, 7 days, XRPD); format: physicochemical; conditions: test for deliquescence, sample stressed for several days under 75% RH
Procedure: Approximately 25 mg of generated salts of […] were added to vials and placed unsealed into a 75% relative humidity chamber (sealed cabinets with relative humidity conditions controlled by super-saturated salt solutions) at ambient temperature for 7 days prior to analysis by XRPD.

[6] = pH 4.5 buffer, pull time 23 hrs
[7] = pH 6.8 buffer, pull time 22.5 hrs
[8] = pH 7.5 buffer, pull time 72 hrs

CCc1nc2ccc(Cl)cn2c1C(=O)NCc1ccc(N2CCC(c3ccc(OC(F)(F)F)cc3)CC2)cc1.Cc1ccc(S(=O)(=O)O)cc1.Cc1ccc(S(=O)(=O)O)cc1 [6-chloro-2-ethyl-N-(4-(4-(4-(trifluoromethoxy)phenyl)piperidine-1-yl)benzyl)imidazo[1,2-a]pyridine-3-carboxamide ditosylate]
long-term storage stability [1]: stable
stability under accelerated conditions [2]: stable

CCc1nc2ccc(Cl)cn2c1C(=O)NCc1ccc(N2CCC(c3ccc(OC(F)(F)F)cc3)CC2)cc1.Cc1ccc(S(=O)(=O)O)cc1.Cc1ccc(S(=O)(=O)O)cc1 [Ditosylate]
HPLC concentration based on avg std (pH 1, client result): 1.45 (client result) mg/ml

CCc1nc2ccc(Cl)cn2c1C(=O)NCc1ccc(N2CCC(c3ccc(OC(F)(F)F)cc3)CC2)cc1.Cc1ccc(S(=O)(=O)O)cc1.Cc1ccc(S(=O)(=O)O)cc1 [Form C]
water absorption (DVS) (DVS water absorption): less than 0.3%
crystalline form after exposure to 100% RH [3]: maintains its crystalline form; also recorded: crystal structure does not change

CCc1nc2ccc(Cl)cn2c1C(=O)NCc1ccc(N2CCC(c3ccc(OC(F)(F)F)cc3)CC2)cc1.Cl [HCl salt, 6-chloro-2-ethyl-N-(4-(4-(4-(trifluoromethoxy)phenyl)piperidine-1-yl)benzyl)imidazo[1,2-a]pyridine-3-carboxamide mono-hydrochloride]
solid form after slurrying in buffer (XRPD) (all buffers tested (pH 1, 4.5, 6.8, 7.5), listed as HCl, mono-hydrochloride): Type 56
solid form after slurrying in buffer (XRPD) (all buffers tested (pH 1, 4.5, 6.8, 7.5), mono-hydrochloride): no conversion to the free base was observed
solubility in comparison to the di-tosylate salt (pH 1): better solubility

CCc1nc2ccc(Cl)cn2c1C(=O)NCc1ccc(N2CCC(c3ccc(OC(F)(F)F)cc3)CC2)cc1.Cl [HCl salt, Type 36]
XRPD of solid isolated after pH solubility experiment (pH 1 buffer, pull time 24 hrs): T56 HCl salt crystalline
HPLC concentration based on avg std [6]: 0.000323 mg/mL and 0.000307 mg/mL
XRPD of solid isolated after pH solubility experiment [6]: T56 HCl salt crystalline
HPLC concentration based on avg std [7]: 0.000285 mg/mL and 0.000277 mg/mL
XRPD of solid isolated after pH solubility experiment [7]: T56 HCl salt crystalline
HPLC concentration based on avg std [8]: 3.28e-05 mg/mL and 3.57e-05 mg/mL
XRPD of solid isolated after pH solubility experiment [8]: T56 HCl salt crystalline

CCc1nc2ccc(Cl)cn2c1C(=O)NCc1ccc(N2CCC(c3ccc(OC(F)(F)F)cc3)CC2)cc1.Cc1ccc(S(=O)(=O)O)cc1.Cc1ccc(S(=O)(=O)O)cc1 [Pat A]
Aq. Sol ([4]; approximate values by aliquot addition on unbuffered water): <0.38 mg/mL
Aq. Sol ([4]; approximate values measured by aliquot addition in unbuffered water): <0.38 mg/mL
RH stress (20C/75RH) [5]: stable
RH stress (20C/75RH) ([5]; 20C): stable

CCc1nc2ccc(Cl)cn2c1C(=O)NCc1ccc(N2CCC(c3ccc(OC(F)(F)F)cc3)CC2)cc1.O=P(O)(O)O [Phosphate salt, Type 37]
XRPD of solid isolated after pH solubility experiment (pH 1): T56 HCl salt v. disordered
HPLC concentration based on avg std (pH 1 buffer, pull time 24 hrs): 5.33 mg/mL and 5.64 mg/mL
XRPD of solid isolated after pH solubility experiment (pH 4.5): Type 28 disordered
HPLC concentration based on avg std [6]: 0.000384 mg/mL and 0.000336 mg/mL
XRPD of solid isolated after pH solubility experiment (pH 6.8): Type 28 disordered
HPLC concentration based on avg std [7]: 0.00028 mg/mL and 0.000297 mg/mL
XRPD of solid isolated after pH solubility experiment (pH 7.5): Type 28 disordered
HPLC concentration based on avg std [8]: 6.39e-05 mg/mL and 4.1e-05 mg/mL

CCc1nc2ccc(Cl)cn2c1C(=O)NCc1ccc(N2CCC(c3ccc(OC(F)(F)F)cc3)CC2)cc1 [Type 28]
solubility (pH 4.5 and above): < 0.00037 mg/mL

CCc1nc2ccc(Cl)cn2c1C(=O)NCc1ccc(N2CCC(c3ccc(OC(F)(F)F)cc3)CC2)cc1.Cl [Type 36]
solid form after slurrying in buffer (XRPD) (all buffers tested (pH 1, 4.5, 6.8, 7.5), listed as Type 36 HCl salt): converted to new type HCl salt Type 56

CCc1nc2ccc(Cl)cn2c1C(=O)NCc1ccc(N2CCC(c3ccc(OC(F)(F)F)cc3)CC2)cc1.Cl [Type 56]
solubility (pH 1 buffer, room temperature): ~ 5.58 mg/mL

CCc1nc2ccc(Cl)cn2c1C(=O)NCc1ccc(N2CCC(c3ccc(OC(F)(F)F)cc3)CC2)cc1.Cc1ccc(S(=O)(=O)O)cc1 [pTSA salt, Type 20]
HPLC concentration based on avg std (pH 1 buffer, pull time 24 hrs): 0.33 mg/mL and 0.32 mg/mL
XRPD of solid isolated after pH solubility experiment (pH 1 buffer, pull time 24 hrs): p-TSA salt T20 crystalline
HPLC concentration based on avg std [6]: 0.000366 mg/mL and 0.000333 mg/mL
XRPD of solid isolated after pH solubility experiment [6]: Type 28 disordered
HPLC concentration based on avg std [7]: 0.000312 mg/mL and 0.000307 mg/mL
XRPD of solid isolated after pH solubility experiment [7]: Type 28 disordered
XRPD of solid isolated after pH solubility experiment [8]: Type 28 disordered

CCc1nc2ccc(Cl)cn2c1C(=O)NCc1ccc(N2CCC(c3ccc(OC(F)(F)F)cc3)CC2)cc1.O=P(O)(O)O [phosphate salt, 6-chloro-2-ethyl-N-(4-(4-(4-(trifluoromethoxy)phenyl)piperidine-1-yl)benzyl)imidazo[1,2-a]pyridine-3-carboxamide mono-phosphate]
solid form after slurrying in buffer (XRPD) (all buffers tested (pH 1, 4.5, 6.8, 7.5)): not stable
solubility in comparison to the di-tosylate salt (low pH, especially around pH1): better solubility
solid form after slurrying in buffer (XRPD) (pH 1 buffer, listed as Phosphate salt, mono-phosphate): converted to HCl Type 56
solid form after slurrying in buffer (XRPD) (pH 1 buffer, mono-phosphate): converted to a new HCl salt, Type 56
solid form after slurrying in buffer (XRPD) (pH 4.5 and above): converted to freebase
